Laboratory results from US7192906B2, “Substituted pyrazole derivatives, production process thereof, and herbicide compositions containing the derivatives” (SDS Biotech K.K., priority 2001, dated 2007).

test system: wheat (Triticum aestivum); assay: Test Example 1 upland field foliage treatment, crop phytotoxicity; assay type: in vivo; conditions: Table 4, upland field foliage treatment, index 0-5
Summary of the method: (§1)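 Scored 0–5 (0: under 10%, 5: 90% or more effect or phytotoxicity) on day 21 after treatment; plants sown in upland soil received a leaf-surface spray 14 days post-sowing of diluted wettable powder delivering 1 kg active ingredient/ha.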

| SMILES | Herbicidal activity (phytotoxicity) TA: Wheat (Triticum aestivum) |
| --- | --- |
| C#CCNC(=O)C(Cn1cc(C)c(-c2ccccc2)n1)=NOC [Compound 27] | 0 (herbicidal effect of not less than 0% and less than 10%, or phytotoxicity of 0% or more and less than 10%) |
| CON=C(Cn1cc(C)c(-c2ccccc2)n1)C(=O)NCc1ccccc1 [Compound 30] | 0 (herbicidal effect of not less than 0% and less than 10%, or phytotoxicity of 0% or more and less than 10%) |

test system: soybean (Glycine max); assay: as above; assay type: in vivo; conditions: Table 4, upland field foliage treatment, index 0-5
Summary of the method: as §1

| SMILES | Herbicidal activity (phytotoxicity) GM: Soybean (Glycine max) |
| --- | --- |
| C#CCNC(=O)C(Cn1cc(C)c(-c2ccccc2)n1)=NOC [Compound 27] | 0 (herbicidal effect of not less than 0% and less than 10%, or phytotoxicity of 0% or more and less than 10%) |
| CON=C(Cn1cc(C)c(-c2ccccc2)n1)C(=O)NCc1ccccc1 [Compound 30] | 0 (herbicidal effect of not less than 0% and less than 10%, or phytotoxicity of 0% or more and less than 10%) |

test system: Digitaria adscendens; assay: Test Example 1 upland field foliage treatment; assay type: in vivo; conditions: Table 4, upland field foliage treatment, index 0-5
Summary of the method: as §1

| SMILES | Herbicidal activity DA: Digitaria adscendens |
| --- | --- |
| C#CCNC(=O)C(Cn1cc(C)c(-c2ccccc2)n1)=NOC [Compound 27] | 5 (herbicidal effect of not less than 90%, or phytotoxicity of 90% or more) |
| CON=C(Cn1cc(C)c(-c2ccccc2)n1)C(=O)NCc1ccccc1 [Compound 30] | 4 (herbicidal effect of not less than 70% and less than 90%, or phytotoxicity of 70% or more and less than 90%) |

test system: Chenopodium album; assay: Test Example 1 upland field foliage treatment; assay type: in vivo; conditions: Table 4, upland field foliage treatment, index 0-5
Summary of the method: as §1

| SMILES | Herbicidal activity CA: Chenopodium album |
| --- | --- |
| C#CCNC(=O)C(Cn1cc(C)c(-c2ccccc2)n1)=NOC [Compound 27] | 5 (herbicidal effect of not less than 90%, or phytotoxicity of 90% or more) |
| CON=C(Cn1cc(C)c(-c2ccccc2)n1)C(=O)NCc1ccccc1 [Compound 30] | 4 (herbicidal effect of not less than 70% and less than 90%, or phytotoxicity of 70% or more and less than 90%) |

test system: Setaria viridis; assay: Test Example 1 upland field foliage treatment; assay type: in vivo; conditions: Table 4, upland field foliage treatment, index 0-5
Summary of the method: as §1

| SMILES | Herbicidal activity SV: Setaria viridis |
| --- | --- |
| C#CCNC(=O)C(Cn1cc(C)c(-c2ccccc2)n1)=NOC [Compound 27] | 5 (herbicidal effect of not less than 90%, or phytotoxicity of 90% or more) |
| CON=C(Cn1cc(C)c(-c2ccccc2)n1)C(=O)NCc1ccccc1 [Compound 30] | 3 (herbicidal effect of not less than 50% and less than 70%, or phytotoxicity of 50% or more and less than 70%) |

test system: Stellaria media; assay: Test Example 1 upland field foliage treatment; assay type: in vivo; conditions: Table 4, upland field foliage treatment, index 0-5
Summary of the method: as §1

| SMILES | Herbicidal activity SM: Stellaria media |
| --- | --- |
| C#CCNC(=O)C(Cn1cc(C)c(-c2ccccc2)n1)=NOC [Compound 27] | 5 (herbicidal effect of not less than 90%, or phytotoxicity of 90% or more) |
| CON=C(Cn1cc(C)c(-c2ccccc2)n1)C(=O)NCc1ccccc1 [Compound 30] | 3 (herbicidal effect of not less than 50% and less than 70%, or phytotoxicity of 50% or more and less than 70%) |

test system: Rice (Oryza sativa); assay: Test Example 3 paddy field treatment, crop phytotoxicity; assay type: in vivo; conditions: paddy field treatment, transplanted rice Koshihikari, wettable powder, active ingredient 1 kg per hectare, 21st day after the dropping, index 0-5
Summary of the method: (§2)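 Scoring used a 0–5 scale of herbicidal effect or phytotoxicity, from <10% to ≥90%, taken 21 days after treatment. Treatment was 1 kg a.i./ha as diluted wettable powder dripped onto 4 cm-deep flooded pots sown with the weeds, 10 days after transplanting two-leaf Koshihikari rice.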

| SMILES | Herbicidal activity OS (phytotoxicity to rice) |
| --- | --- |
| C#CCNC(=O)C(Cn1cc(C)c(-c2ccccc2)n1)=NOC [Compound 27] | 0 (herbicidal effect of not less than 0% and less than 10%, or phytotoxicity of 0% or more and less than 10%) |
| CON=C(Cn1cc(C)c(-c2ccccc2)n1)C(=O)NCc1ccccc1 [Compound 30] | 0 (herbicidal effect of not less than 0% and less than 10%, or phytotoxicity of 0% or more and less than 10%) |

test system: wheat (Triticum aestivum); assay: Test Example 2 upland soil treatment, crop phytotoxicity; assay type: in vivo; conditions: Table 5, upland soil treatment, index 0-5
Summary of the method: (§3)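 Pre-emergence soil treatment: seeds sown in upland soil in pots and covered with about 1 cm soil. Next day, a water-diluted wettable powder was sprayed evenly on the soil surface at 1 kg active ingredient per hectare. Weed control or crop injury was scored 0–5 (10% to ≥90% bands) 21 days later.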

| SMILES | Herbicidal activity (phytotoxicity) TA: Wheat (Triticum aestivum) |
| --- | --- |
| C#CCNC(=O)C(Cn1cc(C)c(-c2ccccc2)n1)=NOC [Compound 27] | 0 (herbicidal effect of not less than 0% and less than 10%, or phytotoxicity of 0% or more and less than 10%) |
| CON=C(Cn1cc(C)c(-c2ccccc2)n1)C(=O)NCc1ccccc1 [Compound 30] | 0 (herbicidal effect of not less than 0% and less than 10%, or phytotoxicity of 0% or more and less than 10%) |

test system: soybean (Glycine max); assay: as above; assay type: in vivo; conditions: Table 5, upland soil treatment, index 0-5
Summary of the method: as §3

| SMILES | Herbicidal activity (phytotoxicity) GM: Soybean (Glycine max) |
| --- | --- |
| C#CCNC(=O)C(Cn1cc(C)c(-c2ccccc2)n1)=NOC [Compound 27] | 1 (herbicidal effect of not less than 10% and less than 30%, or phytotoxicity of 10% or more and less than 30%) |
| CON=C(Cn1cc(C)c(-c2ccccc2)n1)C(=O)NCc1ccccc1 [Compound 30] | 0 (herbicidal effect of not less than 0% and less than 10%, or phytotoxicity of 0% or more and less than 10%) |

test system: Scirpus juncoides; assay: Test Example 3 paddy field treatment; assay type: in vivo; conditions: paddy field treatment, wettable powder, active ingredient 1 kg per hectare, 21st day after the dropping, index 0-5
Summary of the method: as §2

| SMILES | Herbicidal activity SJ |
| --- | --- |
| C#CCNC(=O)C(Cn1cc(C)c(-c2ccccc2)n1)=NOC [Compound 27] | 5 (herbicidal effect of not less than 90%, or phytotoxicity of 90% or more) |
| CON=C(Cn1cc(C)c(-c2ccccc2)n1)C(=O)NCc1ccccc1 [Compound 30] | 4 (herbicidal effect of not less than 70% and less than 90%, or phytotoxicity of 70% or more and less than 90%) |

test system: Monochoria vaginalis; assay: Test Example 3 paddy field treatment; assay type: in vivo; conditions: paddy field treatment, wettable powder, active ingredient 1 kg per hectare, 21st day after the dropping, index 0-5
Summary of the method: as §2

| SMILES | Herbicidal activity MV |
| --- | --- |
| C#CCNC(=O)C(Cn1cc(C)c(-c2ccccc2)n1)=NOC [Compound 27] | 5 (herbicidal effect of not less than 90%, or phytotoxicity of 90% or more) |
| CON=C(Cn1cc(C)c(-c2ccccc2)n1)C(=O)NCc1ccccc1 [Compound 30] | 5 (herbicidal effect of not less than 90%, or phytotoxicity of 90% or more) |

test system: Echinochloa crusgalli; assay: Test Example 3 paddy field treatment; assay type: in vivo; conditions: paddy field treatment, wettable powder, active ingredient 1 kg per hectare, 21st day after the dropping, index 0-5
Summary of the method: as §2

| SMILES | Herbicidal activity EC |
| --- | --- |
| C#CCNC(=O)C(Cn1cc(C)c(-c2ccccc2)n1)=NOC [Compound 27] | 5 (herbicidal effect of not less than 90%, or phytotoxicity of 90% or more) |
| CON=C(Cn1cc(C)c(-c2ccccc2)n1)C(=O)NCc1ccccc1 [Compound 30] | 4 (herbicidal effect of not less than 70% and less than 90%, or phytotoxicity of 70% or more and less than 90%) |

test system: Ammannia multiflora; assay: Test Example 3 paddy field treatment; assay type: in vivo; conditions: paddy field treatment, wettable powder, active ingredient 1 kg per hectare, 21st day after the dropping, index 0-5
Summary of the method: as §2

| SMILES | Herbicidal activity AM |
| --- | --- |
| C#CCNC(=O)C(Cn1cc(C)c(-c2ccccc2)n1)=NOC [Compound 27] | 5 (herbicidal effect of not less than 90%, or phytotoxicity of 90% or more) |
| CON=C(Cn1cc(C)c(-c2ccccc2)n1)C(=O)NCc1ccccc1 [Compound 30] | 4 (herbicidal effect of not less than 70% and less than 90%, or phytotoxicity of 70% or more and less than 90%) |

test system: Digitaria adscendens; assay: Test Example 2 upland soil treatment; assay type: in vivo; conditions: Table 5, upland soil treatment, index 0-5
Summary of the method: as §3

| SMILES | Herbicidal activity DA: Digitaria adscendens |
| --- | --- |
| C#CCNC(=O)C(Cn1cc(C)c(-c2ccccc2)n1)=NOC [Compound 27] | 5 (herbicidal effect of not less than 90%, or phytotoxicity of 90% or more) |
| CON=C(Cn1cc(C)c(-c2ccccc2)n1)C(=O)NCc1ccccc1 [Compound 30] | 3 (herbicidal effect of not less than 50% and less than 70%, or phytotoxicity of 50% or more and less than 70%) |

test system: Chenopodium album; assay: Test Example 2 upland soil treatment; assay type: in vivo; conditions: Table 5, upland soil treatment, index 0-5
Summary of the method: as §3

| SMILES | Herbicidal activity CA: Chenopodium album |
| --- | --- |
| C#CCNC(=O)C(Cn1cc(C)c(-c2ccccc2)n1)=NOC [Compound 27] | 5 (herbicidal effect of not less than 90%, or phytotoxicity of 90% or more) |
| CON=C(Cn1cc(C)c(-c2ccccc2)n1)C(=O)NCc1ccccc1 [Compound 30] | 4 (herbicidal effect of not less than 70% and less than 90%, or phytotoxicity of 70% or more and less than 90%) |

test system: Setaria viridis; assay: Test Example 2 upland soil treatment; assay type: in vivo; conditions: Table 5, upland soil treatment, index 0-5
Summary of the method: as §3

| SMILES | Herbicidal activity SV: Setaria viridis |
| --- | --- |
| C#CCNC(=O)C(Cn1cc(C)c(-c2ccccc2)n1)=NOC [Compound 27] | 5 (herbicidal effect of not less than 90%, or phytotoxicity of 90% or more) |
| CON=C(Cn1cc(C)c(-c2ccccc2)n1)C(=O)NCc1ccccc1 [Compound 30] | 4 (herbicidal effect of not less than 70% and less than 90%, or phytotoxicity of 70% or more and less than 90%) |

test system: Stellaria media; assay: Test Example 2 upland soil treatment; assay type: in vivo; conditions: Table 5, upland soil treatment, index 0-5
Summary of the method: as §3

| SMILES | Herbicidal activity SM: Stellaria media |
| --- | --- |
| C#CCNC(=O)C(Cn1cc(C)c(-c2ccccc2)n1)=NOC [Compound 27] | 5 (herbicidal effect of not less than 90%, or phytotoxicity of 90% or more) |
| CON=C(Cn1cc(C)c(-c2ccccc2)n1)C(=O)NCc1ccccc1 [Compound 30] | 3 (herbicidal effect of not less than 50% and less than 70%, or phytotoxicity of 50% or more and less than 70%) |
